{"source": "patent US11319311B2", "about": "“Crystalline forms of Actinomycin D for treatment of cancer” (TRANSGENEX NANOBIOTECH, INC., priority 2018, dated 2022)", "key": {"[1]": {"assay": "Accelerated stability studies (PXRD physical form stability)", "assay_type": "physicochemical", "conditions": "accelerated conditions 75% humidity and 40° C., one year, by PXRD", "description": "Stability studies of the DACT novel forms were conducted using accelerated conditions (75% humidity and 40° C.) of which are obvious to the artisan in the field, for more than one year. […] Selected data of the novel complexes of DACT:methylparaben, propylparaben and diphenic acid proves this point."}, "[2]": {"system": "human sarcoma cell line SK-ES-1", "assay": "Tumor sphere formation assay", "assay_type": "cell-based", "excerpt": "Cancer stem cells (CSCs) are defined as a small subset of cells within a tumor with the ability to self-renew and often drive tumor progression and recurrence after chemotherapy treatment (Xiaochen Zhou, et al. 2015. A Reliable Parameter to Standardize the Scoring of Stem Cell Spheres. PLOS One 10(5); e0127348). It is important to study the responses of cancer stem cells or the tumors treated with the new molecular complexes. We have assessed cancer stem cells (CSCs) growth using tumor sphere formation assay, which involves culturing cancer cells in low attachment plates in serum free media. Sphere size and diameter was measured using Image) software and statistical analysis was performed using Graph Pad Prism Software.\nThe stem cell culture medium is prepared for 500 ml (250 ml of Dulbecco's Modified Eagle Medium (DMEM) (ATCC® 30-2002) plus 250 ml of F-12K medium (ATCC® 30-2004)) using 20 ng/ml epidermal growth factor, 10 ng/ml basic fibroblast growth factor, 5 μg/ml insulin and 0.4% Bovine Serum Albumin. All preparation methods known to the person skilled in the art.\nThe cancer cell line used in this study was human sarcoma cell line SK-ES-1. The cells were seeded in a density of 200 per well per 200 μl in a 96-well Ultra-Low Attachment plate (Corning, Cat #3474, USA), this plate is specially treated for stem cell growth or tumor culture. On the day 1 of seeding, 100 μl of cell solution was added into the plate. […]\nOn the day 6 of seeding, 10 μl of NucBlue Live Cell Stain ReadyProbes (Invitrogen Cat #R37605, USA) were added into each well for staining to visualize the live cells under the blue fluorescent light. […] Then the plate was brought to the Keyence imaging device (Keyence America, All-in-One Fluorescence Microscope BZ-X800, USA) for image scanning. […]\nThe sum of sphere image area of every individual sphere, with diameter over 50 μm, in each well was calculated. […] The sphere image area was calculated based on the sum area of spheres with diameter over 50 μm in each treatment well, and significance was declared at P<0.05 for the bars indicated by *, and P<0.001 by **. […]"}, "[3]": {"system": "PANC-1", "assay": "Monolayer cell culture IC50 (CellTiter-Glo viability), PANC-1", "assay_type": "cell-based", "conditions": "Pancreatic, PANC-1, monolayer, 72 hours treatment, average of three replications", "description": "(§1) Cancer cell lines listed in Table 1 were subjected for testing anti-cancer potency or the half maximal inhibitory concentration (IC50) of the D-Actinomycin (DACT) molecular complexes.\n(§2) The SK-ES-1, U-2 OS, and SAOS-2 cells were cultured in a growth medium that is ATCC-formulated McCoy's 5a Medium Modified, Catalog No. 30-2007. The PC-3, PANC-1, SK-Mel-5, A549, H460, and H1299 were cultured in a growth medium that is ATCC-formulated Dulbecco's Modified Eagle's Medium (DMEM), Catalog No. 30-2002. The cells were seeded on 96-well microtiter plates with 3500 cells per well and cultured in an incubator (Model 3120, Thermo Scientific, USA) with a constant temperature at 37° C. and 5% carbon dioxide (CO2) gas for 24 hours.\n(§3) The new DACT-molecular complexes were made into a series with concentration of 200 nM to 40 nM, 8 nM, 1.6 nM, 0.32 nM, and 0.064 nM. 100 μl of each solution was then added into each well to bring out the final concentration of the drug treatment at 100 nM, 20 nM, 4 nM, 0.8 nM, 0.16 nM, or 0.032 nM, respectively.\n(§4) The treated cells in the 96 well plate was then further cultured at the same conditions for 72 hours and then subjected for a final cell viability measurement. The measurement used a homogeneous method to determine the number of metabolically active cells presented in each of treatments. A testing reagent for the measurement is a mixture solution of the CellTiter-Glo® 2.0 reagent (CTG, Promega Cat #G9243, USA) and growth medium in 1:1 ratio in this respect.\n(§5) The 96-well plate with the new molecular complex treated cells was taken out from incubator after the 72 hours of incubation, and the treatment solution in each well was removed using a multichannel pipette, and 100 μl of the testing reagent were added into each well. The plate was then placed on a plate shaker for 15 min. The plate was covered with a piece of aluminum foil to protect the CTG luminescence during the shaking time.\n(§6) Then 90 μl of the 100 μl testing reagent were transferred into an opaque-walled 96-well plate for the CTG luminescence reading on a plate reader (SynergyH4 Hybrid Reader, Biotek, USA). The luminescence intensity of each treatment was positively correlated with the number of cells survived during the treatments.\n(§7) All the treatment data was normalized by comparing with the control samples that had only growth medium without any molecular complexes. The half maximal inhibitory concentration (IC50) data was calculated using the nonlinear regression model and dose-responses (inhibition) curve built in the software. Each of treatments was performed in three replications each time and repeated three times for validation. The IC50 average […] (Avg) and standard deviation (STDV) were calculated based on the three replications."}, "[4]": {"system": "A549", "assay": "Monolayer cell culture IC50 (CellTiter-Glo viability), A549", "assay_type": "cell-based", "conditions": "Lung, 72 hours treatment, average of three replications", "description": "as §1, §2, §3, §4, §5, §6, §7"}, "[5]": {"system": "H460", "assay": "Monolayer cell culture IC50 (CellTiter-Glo viability), H460", "assay_type": "cell-based", "conditions": "Lung, 72 hours treatment, average of three replications", "description": "as §1, §2, §3, §4, §5, §6, §7"}, "[6]": {"conditions": "Test I, read-out: IC50 Test (I) Avg"}, "[7]": {"conditions": "Test II, read-out: IC50 Test (II) Avg"}, "[8]": {"conditions": "Test III, read-out: IC50 Test (III) Avg"}}, "note": "Where two headings read alike, the source gives them in different places."}
{"smiles": "CCCOC(=O)c1ccc(O)cc1.Cc1c2oc3c(C)ccc(C(=O)NC4C(=O)NC(C(C)C)C(=O)N5CCCC5C(=O)N(C)CC(=O)N(C)C(C(C)C)C(=O)OC4C)c3nc-2c(C(=O)NC2C(=O)NC(C(C)C)C(=O)N3CCCC3C(=O)N(C)CC(=O)N(C)C(C(C)C)C(=O)OC2C)c(N)c1=O", "note": "(stereo not shown) [DACT-propylparaben]", "values": [{"measurement": "physical form stability", "setting": "[1]", "value": "stable"}, {"measurement": "sphere area", "setting": "[2]; SK-ES-1 spheres with diameter over 50 μm, day 6 of seeding, compared with pure parent molecule DACT", "value": "noticeable reduction in sphere area"}, {"measurement": "tumor spheres size (SSS)", "setting": "[2]; compared with that of the parent molecule", "value": "reduced tumor spheres size (SSS)"}, {"measurement": "tumor sphere formation efficiency (SFE)", "setting": "[2]; compared with the parent molecule", "value": "reduced tumor sphere formation efficiency (SFE)"}, {"measurement": "IC50", "setting": "[3]; [6]", "value": 4.61, "unit": "nM"}, {"measurement": "IC50", "setting": "[3]; [7]", "value": 1.71, "unit": "nM"}, {"measurement": "IC50", "setting": "[3]; [8]", "value": 3.29, "unit": "nM"}, {"measurement": "IC50", "setting": "[4]; [6]", "value": 1.39, "unit": "nM"}, {"measurement": "IC50", "setting": "[4]; [7]", "value": 1.74, "unit": "nM"}, {"measurement": "IC50", "setting": "[4]; [8]", "value": 1.63, "unit": "nM"}, {"measurement": "IC50", "setting": "[5]; [6]", "value": 0.21, "unit": "nM"}, {"measurement": "IC50", "setting": "[5]; [7]", "value": 0.3, "unit": "nM"}, {"measurement": "IC50", "setting": "[5]; [8]", "value": 0.15, "unit": "nM"}]}
